Literature values, collected in EP0005248A2, “Tetrapeptidehydrazide derivatives and process for their preparation” (Takeda Chemical Industries, Ltd., priority 1978, dated 1979).

Conditions: for analgesic action: intravenous administration

**Q.** Which results are given for H=ryr -Gly-Gly-Phe-Met-OH?
**A.** morphinomimetic action (directly administered by the intracerebral route): display a morphinemimetic action; analgesic action: do not have an analgesic action

**Q.** For “β-Endorphin (YGGFMTSEKSQTPLVTLFKNAIIKNAYKKGE; Beta-endorphin; UniProt P01189 237-267, looked up)”, which analgesic action is on record?
**A.** profound analgesic effects
